# From patent publication US10376520B2, “Methods for the treatment of cardiovascular disorders” (Galapagos NV, priority 2015, dated 2019)
# Tested on: RA patients
# Experiment: Total cholesterol determination, Study 2 (RA patients, monotherapy with Compound 1)
# Assay type: in vivo, human
# Description: Randomized, double-blind, placebo-controlled, multicenter, phase IIb dose finding study of Compound 1 (dosed as a [Compound 1:HCl:3H2O]) administered for 24 weeks as monotherapy to subjects with moderately to severely active rheumatoid arthritis who have an inadequate response to methotrexate alone
# Double-blind, placebo-controlled, monotherapy study in subjects with moderately to severely active RA who have an inadequate response to methotrexate (MTX) (oral or parenteral).
# 280 subjects randomized to one of 3 doses of Compound 1 (dosed as a [Compound 1:HCl:3H2O]) or to placebo, given once daily (q.d.).
# Twelve weeks of treatment with Compound 1 (dosed as a [Compound 1:HCl:3H2O]) at 50 mg, 100 mg, or 200 mg q.d.; or placebo. At Week 12, all subjects on placebo and the subjects on the 50 mg dose who have not achieved 20% improvement in swollen joint count (SJC66) and tender joint count (TJC68) will be assigned to 100 mg q.d. in a blinded fashion and will continue treatment until Week 24. Subjects in the other groups will maintain their randomized treatment until Week 24.
# This method is based on the determination of Δ^4 cholestenone after enzymatic cleavage of the cholesterol ester by cholesterol esterase, conversion of cholesterol by cholesterol oxidase, and subsequent measurement by the Trinder reaction of the hydrogen peroxide formed (Allain et al., 1974).
# Cholesterol esters are cleaved by the action of cholesterol esterase to yield free cholesterol and fatty acids. Cholesterol oxidase then catalyzes the oxidation of cholesterol to cholest-4-en-3-one and hydrogen peroxide. In the presence of peroxidase, the hydrogen peroxide formed effects the oxidative coupling of phenol and 4-aminophenazone to form a red quinone-imine dye. The color intensity of the dye formed is directly proportional to the cholesterol concentration. It is determined by measuring the increase in absorbance.
# Human serum and plasma samples cholesterol determination was done on a Roche/Hitachi Cobas c 701/702 system which automatically calculate the analyte concentration of each sample.
# [1] = 50 mg q.d. non responders switching to 100 mg q.d. at week 12, week 1
# [2] = 50 mg q.d. non responders switching to 100 mg q.d. at week 12, week 2
# [3] = 50 mg q.d. non responders switching to 100 mg q.d. at week 12, week 4
# [4] = 50 mg q.d. non responders switching to 100 mg q.d. at week 12, week 8
# [5] = 50 mg q.d. non responders switching to 100 mg q.d. at week 12, week 12
# [6] = 50 mg q.d. non responders switching to 100 mg q.d. at week 12, week 16
# [7] = 50 mg q.d. non responders switching to 100 mg q.d. at week 12, week 20
# [8] = 50 mg q.d. non responders switching to 100 mg q.d. at week 12, week 24
compound,measurement,setting,value
"O=C(Nc1nc2cccc(-c3ccc(CN4CCS(=O)(=O)CC4)cc3)n2n1)C1CC1 [Compound 1, cyclopropanecarboxylic acid {5-[4-(1,1-dioxo-thiomorpholin-4-ylmethyl)-phenyl]-[1,2,4]triazolo[1,5-a]pyridin-2yl}-amide]",[total cholesterol] Mean percentage CFB - 24 weeks results,[1],4.56%
same,[total cholesterol] Median percentage CFB - 24 weeks results,[1],2.94%
same,[total cholesterol] Mean percentage CFB - 24 weeks results,[2],3.50%
same,[total cholesterol] Median percentage CFB - 24 weeks results,[2],2.00%
same,[total cholesterol] Mean percentage CFB - 24 weeks results,[3],7.51%
same,[total cholesterol] Median percentage CFB - 24 weeks results,[3],6.58%
same,[total cholesterol] Mean percentage CFB - 24 weeks results,[4],5.10%
same,[total cholesterol] Median percentage CFB - 24 weeks results,[4],2.88%
same,[total cholesterol] Mean percentage CFB - 24 weeks results,[5],5.83%
same,[total cholesterol] Median percentage CFB - 24 weeks results,[5],6.79%
same,[total cholesterol] Mean percentage CFB - 24 weeks results,[6],9.72%
same,[total cholesterol] Median percentage CFB - 24 weeks results,[6],11.41%
same,[total cholesterol] Mean percentage CFB - 24 weeks results,[7],9.75%
same,[total cholesterol] Median percentage CFB - 24 weeks results,[7],7.07%
same,[total cholesterol] Mean percentage CFB - 24 weeks results,[8],10.66%
same,[total cholesterol] Median percentage CFB - 24 weeks results,[8],10.65%
same,[total cholesterol] Mean percentage CFB - 24 weeks results,"50 mg q.d. responders, week 1",0.02%
same,[total cholesterol] Median percentage CFB - 24 weeks results,"50 mg q.d. responders, week 1",0.35%
same,[total cholesterol] Median percentage CFB - 24 weeks results,"50 mg q.d. responders, week 2",−0.82%
same,[total cholesterol] Mean percentage CFB - 24 weeks results,"50 mg q.d. responders, week 4",1.68%
same,[total cholesterol] Median percentage CFB - 24 weeks results,"50 mg q.d. responders, week 4",−0.51%
same,[total cholesterol] Mean percentage CFB - 24 weeks results,"50 mg q.d. responders, week 8",5.55%
same,[total cholesterol] Median percentage CFB - 24 weeks results,"50 mg q.d. responders, week 8",5.74%
same,[total cholesterol] Mean percentage CFB - 24 weeks results,"50 mg q.d. responders, week 12",3.59%
same,[total cholesterol] Median percentage CFB - 24 weeks results,"50 mg q.d. responders, week 12",1.01%
same,[total cholesterol] Mean percentage CFB - 24 weeks results,"50 mg q.d. responders, week 16",5.85%
same,[total cholesterol] Median percentage CFB - 24 weeks results,"50 mg q.d. responders, week 16",2.92%
same,[total cholesterol] Mean percentage CFB - 24 weeks results,"50 mg q.d. responders, week 20",2.09%
same,[total cholesterol] Median percentage CFB - 24 weeks results,"50 mg q.d. responders, week 20",3.75%
same,[total cholesterol] Mean percentage CFB - 24 weeks results,"50 mg q.d. responders, week 24",3.49%
same,[total cholesterol] Median percentage CFB - 24 weeks results,"50 mg q.d. responders, week 24",5.44%
same,[total cholesterol] Mean percentage CFB - 12 weeks results,"50 mg q.d., week 1",0.96%
same,[total cholesterol] Median percentage CFB - 12 weeks results,"50 mg q.d., week 1",2.12%
same,[total cholesterol] Mean percentage CFB - 12 weeks results,"50 mg q.d., week 2",−0.18%
same,[total cholesterol] Median percentage CFB - 12 weeks results,"50 mg q.d., week 2",0.00%
same,[total cholesterol] Mean percentage CFB - 12 weeks results,"50 mg q.d., week 4",2.91%
same,[total cholesterol] Median percentage CFB - 12 weeks results,"50 mg q.d., week 4",0.00%
same,[total cholesterol] Mean percentage CFB - 12 weeks results,"50 mg q.d., week 8",5.45%
same,[total cholesterol] Median percentage CFB - 12 weeks results,"50 mg q.d., week 8",4.90%
same,[total cholesterol] Mean percentage CFB - 12 weeks results,"50 mg q.d., week 12",4.08%
same,[total cholesterol] Median percentage CFB - 12 weeks results,"50 mg q.d., week 12",3.43%
same,[total cholesterol] Mean percentage CFB - 12 weeks results,"100 mg q.d., week 1",4.15%
same,[total cholesterol] Mean percentage CFB - 24 weeks results,"100 mg q.d., week 1",4.15%
same,[total cholesterol] Median percentage CFB - 24 weeks results,"100 mg q.d., week 1",2.38%
same,[total cholesterol] Mean percentage CFB - 12 weeks results,"100 mg q.d., week 2",4.96%
same,[total cholesterol] Mean percentage CFB - 24 weeks results,"100 mg q.d., week 2",4.96%
same,[total cholesterol] Median percentage CFB - 24 weeks results,"100 mg q.d., week 2",2.65%
same,[total cholesterol] Mean percentage CFB - 12 weeks results,"100 mg q.d., week 4",8.28%
same,[total cholesterol] Mean percentage CFB - 24 weeks results,"100 mg q.d., week 4",8.28%
same,[total cholesterol] Median percentage CFB - 24 weeks results,"100 mg q.d., week 4",5.40%
same,[total cholesterol] Mean percentage CFB - 12 weeks results,"100 mg q.d., week 8",7.75%
same,[total cholesterol] Mean percentage CFB - 24 weeks results,"100 mg q.d., week 8",7.75%
same,[total cholesterol] Median percentage CFB - 24 weeks results,"100 mg q.d., week 8",6.08%
same,[total cholesterol] Mean percentage CFB - 12 weeks results,"100 mg q.d., week 12",12.45%
same,[total cholesterol] Mean percentage CFB - 24 weeks results,"100 mg q.d., week 12",12.45%
same,[total cholesterol] Median percentage CFB - 24 weeks results,"100 mg q.d., week 12",6.41%
same,[total cholesterol] Mean percentage CFB - 24 weeks results,"100 mg q.d., week 16",10.96%
same,[total cholesterol] Median percentage CFB - 24 weeks results,"100 mg q.d., week 16",8.91%
same,[total cholesterol] Mean percentage CFB - 24 weeks results,"100 mg q.d., week 20",10.06%
same,[total cholesterol] Median percentage CFB - 24 weeks results,"100 mg q.d., week 20",9.85%
same,[total cholesterol] Mean percentage CFB - 24 weeks results,"100 mg q.d., week 24",11.75%
same,[total cholesterol] Median percentage CFB - 24 weeks results,"100 mg q.d., week 24",10.29%
same,[total cholesterol] Mean percentage CFB - 12 weeks results,"200 mg q.d., week 1",5.77%
same,[total cholesterol] Mean percentage CFB - 24 weeks results,"200 mg q.d., week 1",5.77%
same,[total cholesterol] Median percentage CFB - 24 weeks results,"200 mg q.d., week 1",5.37%
same,[total cholesterol] Mean percentage CFB - 12 weeks results,"200 mg q.d., week 2",7.74%
same,[total cholesterol] Mean percentage CFB - 24 weeks results,"200 mg q.d., week 2",7.74%
same,[total cholesterol] Median percentage CFB - 24 weeks results,"200 mg q.d., week 2",6.90%
same,[total cholesterol] Mean percentage CFB - 12 weeks results,"200 mg q.d., week 4",9.35%
